Results reported in PubChem BioAssay (NCI).
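Cultured in 96-well plates, cells were exposed to test compound for 48 hours across five concentrations. Abbreviation: GI50, concentration required for 50% inhibition of growth. At the TGI there is no net growth.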

Tests used:
Assay in all cases: NCI anticancer screen, dose series, 48 h
786-0 renal = test system: 786-0 renal
A498 renal = test system: A498 renal
A549 NSCLC = test system: A549 NSCLC
ACHN renal = test system: ACHN renal
BT-549 breast = test system: BT-549 breast
CAKI-1 renal = test system: CAKI-1 renal
CCRF-CEM leukemia = test system: CCRF-CEM leukemia
COLO 205 colon = test system: COLO 205 colon
DU-145 prostate = test system: DU-145 prostate
EKVX NSCLC = test system: EKVX NSCLC
HCC-2998 colon = test system: HCC-2998 colon
HCT-116 colon = test system: HCT-116 colon
HCT-15 colon = test system: HCT-15 colon
HOP-62 NSCLC = test system: HOP-62 NSCLC
HOP-92 NSCLC = test system: HOP-92 NSCLC
HS 578T breast = test system: HS 578T breast
HT29 colon = test system: HT29 colon
IGROV1 ovarian = test system: IGROV1 ovarian
K-562 leukemia = test system: K-562 leukemia
KM12 colon = test system: KM12 colon
LOX IMVI melanoma = test system: LOX IMVI melanoma
M14 melanoma = test system: M14 melanoma
MALME-3M melanoma = test system: MALME-3M melanoma
MCF7 breast = test system: MCF7 breast
MDA-MB-231 breast = test system: MDA-MB-231 breast
MDA-MB-435 = test system: MDA-MB-435
MOLT-4 leukemia = test system: MOLT-4 leukemia
NCI-H226 lung = test system: NCI-H226 lung
NCI-H23 lung = test system: NCI-H23 lung
NCI-H460 lung = test system: NCI-H460 lung
NCI-H522 lung = test system: NCI-H522 lung
NCI/ADR-RES ovarian = test system: NCI/ADR-RES ovarian
OVCAR-3 ovarian = test system: OVCAR-3 ovarian
OVCAR-4 ovarian = test system: OVCAR-4 ovarian
OVCAR-5 ovarian = test system: OVCAR-5 ovarian
OVCAR-8 ovarian = test system: OVCAR-8 ovarian
PC-3 prostate = test system: PC-3 prostate
RXF 393 renal = test system: RXF 393 renal
SF-268 CNS = test system: SF-268 CNS
SF-295 CNS = test system: SF-295 CNS
SF-539 CNS = test system: SF-539 CNS
SK-MEL-2 melanoma = test system: SK-MEL-2 melanoma
SK-MEL-28 melanoma = test system: SK-MEL-28 melanoma
SK-MEL-5 melanoma = test system: SK-MEL-5 melanoma
SK-OV-3 ovarian = test system: SK-OV-3 ovarian
SN12C renal = test system: SN12C renal
SNB-19 CNS = test system: SNB-19 CNS
SNB-75 CNS = test system: SNB-75 CNS
SR leukemia = test system: SR leukemia
SW-620 colon = test system: SW-620 colon
T-47D breast = test system: T-47D breast
TK-10 renal = test system: TK-10 renal
U251 CNS = test system: U251 CNS
UACC-257 melanoma = test system: UACC-257 melanoma
UACC-62 melanoma = test system: UACC-62 melanoma
UO-31 renal = test system: UO-31 renal

For O=C(Nc1cccc(Cl)c1)c1cc(N=Nc2ccc([N+](=O)[O-])cc2Cl)ccc1O, the GI50 (786-0 renal) was 2.93 µM, the TGI (786-0 renal) was 8.27 µM and the GI50 (A498 renal) was 1.94 µM. It also gave a TGI (A498 renal) of 4.51 µM, a GI50 (A549 NSCLC) of 3.01 µM and a TGI (A549 NSCLC) of over 100 µM. The GI50 (ACHN renal) was 2.3 µM, the TGI (ACHN renal) was 6.46 µM and the GI50 (BT-549 breast) was 2.35 µM. It also gave a TGI (BT-549 breast) of 7.31 µM, a GI50 (CAKI-1 renal) of 1.93 µM and a TGI (CAKI-1 renal) of 4.02 µM. For the same compound, the GI50 (CCRF-CEM leukemia) was 2.16 µM, the TGI (CCRF-CEM leukemia) was 5.81 µM and the GI50 (COLO 205 colon) was 3.19 µM. For the same compound, the TGI (COLO 205 colon) was 11 µM, the GI50 (DU-145 prostate) was 1.43 µM and the TGI (DU-145 prostate) was 8.72 µM. For the same compound, the GI50 (EKVX NSCLC) was 2.16 µM, the TGI (EKVX NSCLC) was 6.57 µM and the GI50 (HCC-2998 colon) was 1.95 µM. It also gave a TGI (HCC-2998 colon) of 5.53 µM, a GI50 (HCT-116 colon) of 2.81 µM and a TGI (HCT-116 colon) of 8.25 µM. For the same compound, the GI50 (HCT-15 colon) was 1.89 µM, the TGI (HCT-15 colon) was 5.85 µM and the GI50 (HOP-62 NSCLC) was 3.27 µM. The TGI (HOP-62 NSCLC) was 9.46 µM, the GI50 (HOP-92 NSCLC) was 1.24 µM and the TGI (HOP-92 NSCLC) was 4.12 µM. It also gave a GI50 (HS 578T breast) of 1.95 µM, a TGI (HS 578T breast) of 7.71 µM and a GI50 (HT29 colon) of 2.83 µM. It also gave a TGI (HT29 colon) of 9.5 µM, a GI50 (IGROV1 ovarian) of 3.12 µM and a TGI (IGROV1 ovarian) of 19 µM. The GI50 (K-562 leukemia) was 1.95 µM, the TGI (K-562 leukemia) was 4.72 µM and the GI50 (KM12 colon) was 1.57 µM. The TGI (KM12 colon) was 4.61 µM, the GI50 (LOX IMVI melanoma) was 3.02 µM and the TGI (LOX IMVI melanoma) was 10.8 µM. For the same compound, the GI50 (M14 melanoma) was 3.18 µM, the TGI (M14 melanoma) was 12.1 µM and the GI50 (MALME-3M melanoma) was 2.17 µM. The TGI (MALME-3M melanoma) was 5.92 µM, the GI50 (MCF7 breast) was 2.03 µM and the TGI (MCF7 breast) was 5.79 µM. The GI50 (MDA-MB-231 breast) was 2.03 µM, the TGI (MDA-MB-231 breast) was 5.27 µM and the GI50 (MDA-MB-435) was 2.34 µM. The TGI (MDA-MB-435) was 5.96 µM, the GI50 (MOLT-4 leukemia) was 1.74 µM and the TGI (MOLT-4 leukemia) was 4.4 µM. The GI50 (NCI-H226 lung) was 2.88 µM, the TGI (NCI-H226 lung) was 16.6 µM and the GI50 (NCI-H23 lung) was 1.93 µM. For the same compound, the TGI (NCI-H23 lung) was 4.58 µM, the GI50 (NCI-H460 lung) was 2.74 µM and the TGI (NCI-H460 lung) was 7.92 µM. For the same compound, the GI50 (NCI-H522 lung) was 2.94 µM, the TGI (NCI-H522 lung) was 6.95 µM and the GI50 (NCI/ADR-RES ovarian) was 2.27 µM. The TGI (NCI/ADR-RES ovarian) was 5.93 µM, the GI50 (OVCAR-3 ovarian) was 1.06 µM and the TGI (OVCAR-3 ovarian) was 4.38 µM. The GI50 (OVCAR-4 ovarian) was 2.67 µM, the TGI (OVCAR-4 ovarian) was over 100 µM and the GI50 (OVCAR-5 ovarian) was 2.81 µM. For the same compound, the TGI (OVCAR-5 ovarian) was 10.6 µM, the GI50 (OVCAR-8 ovarian) was 3.04 µM and the TGI (OVCAR-8 ovarian) was 18 µM. For the same compound, the GI50 (PC-3 prostate) was 1.94 µM, the TGI (PC-3 prostate) was 6.36 µM and the GI50 (RXF 393 renal) was 2.56 µM. It also gave a TGI (RXF 393 renal) of 6.99 µM, a GI50 (SF-268 CNS) of 2.22 µM and a TGI (SF-268 CNS) of 11.4 µM. It also gave a GI50 (SF-295 CNS) of 1.49 µM, a TGI (SF-295 CNS) of 3.22 µM and a GI50 (SF-539 CNS) of 2.41 µM. It also gave a TGI (SF-539 CNS) of 8.61 µM, a GI50 (SK-MEL-2 melanoma) of 1.81 µM and a TGI (SK-MEL-2 melanoma) of 4.04 µM. The GI50 (SK-MEL-28 melanoma) was 2.88 µM, the TGI (SK-MEL-28 melanoma) was 10.9 µM and the GI50 (SK-MEL-5 melanoma) was 1.86 µM. For the same compound, the TGI (SK-MEL-5 melanoma) was 3.81 µM, the GI50 (SK-OV-3 ovarian) was 1.94 µM and the TGI (SK-OV-3 ovarian) was 6.63 µM. It also gave a GI50 (SN12C renal) of 2.86 µM, a TGI (SN12C renal) of 8.87 µM and a GI50 (SNB-19 CNS) of 3.07 µM. For the same compound, the TGI (SNB-19 CNS) was over 100 µM, the GI50 (SNB-75 CNS) was 2.65 µM and the TGI (SNB-75 CNS) was 20.5 µM. It also gave a GI50 (SR leukemia) of 1.6 µM, a TGI (SR leukemia) of 4.29 µM and a GI50 (SW-620 colon) of 2.95 µM. It also gave a GI50 (T-47D breast) of 1.62 µM, a TGI (T-47D breast) of 5.57 µM and a GI50 (TK-10 renal) of 2.24 µM. It also gave a TGI (TK-10 renal) of 6.92 µM, a GI50 (U251 CNS) of 1.93 µM and a TGI (U251 CNS) of 7 µM. It also gave a GI50 (UACC-257 melanoma) of 2.55 µM, a TGI (UACC-257 melanoma) of 6.52 µM and a GI50 (UACC-62 melanoma) of 2.44 µM. The TGI (UACC-62 melanoma) was 6.65 µM, the GI50 (UO-31 renal) was 2.16 µM and the TGI (UO-31 renal) was 6.08 µM.
